# Measured values published in patent US9695155B2, “Herbicidal substituted pyrimidinyloxy benzene compounds” (E. I. DU PONT DE NEMOURS AND COMPANY, priority 2013, dated 2017).
# Legend:
# palmer pigweed = assay: Test E postemergence; type: in vivo, Amaranthus palmeri; conditions: post-emergence, read-out: Plant response rating, Pigweed, Palmer; for pest or weed control at 31 g/ha / pest or weed control at 62 g/ha / pest or weed control at 125 g/ha / pest or weed control at 250 g/ha: Postemergence, scale 0 to 100; for pest or weed control at 31 g/ha: 31 g ai/ha; for pest or weed control at 62 g/ha: 62 g ai/ha; for pest or weed control at 125 g/ha: 125 g ai/ha; for pest or weed control at 250 g/ha: 250 g ai/ha; for pest or weed control at 16 g/ha: postemergence, 16 g ai/ha, scale 0 to 100, 0 no effect, 100 complete control
# Description: (§1) Seeds of plant species selected from corn (Zea mays), soybean (Glycine max), velvetleaf (Abutilon theophrasti), lambsquarters (Chenopodium album), wild poinsettia (Euphorbia heterophylla), palmer pigweed (Amaranthus palmeri), waterhemp (common waterhemp, Amaranthus rudis), surinam grass (Brachiaria decumbens), large (Lg) crabgrass (Digitaria sanguinalis), Brazilian crabgrass (Digitaria horizontalis), fall panicum (Panicum dichotomiflorum), giant foxtail (Setaria faberii), green foxtail (Setaria viridis), goosegrass (Eleusine indica), johnsongrass (Sorghum halepense), ragweed (common ragweed, Ambrosia elatior), barnyardgrass (Echinochloa crus-galli), sandbur (southern sandbur, Cenchrus echinatus), arrowleaf sida (Sida rhombifolia), Italian ryegrass (Lolium multiflorum), dayflower (Virginia (VA) dayflower, Commelina virginica), field bindweed (Convolvulus arvensis), morningglory (Ipomoea coccinea), nightshade (eastern black nightshade, Solanum ptycanthum), kochia (Kochia scoparia), yellow nutsedge (Cyperus esculentus), cocklebur (common cocklebur, Xanthium strumarium), smartweed (ladysthumb smartweed, and hairy beggarticks (Bidens pilosa), were planted into a silt loam soil and treated preemergence with test chemicals formulated in a non-phytotoxic solvent mixture which included a surfactant.
# (§2) At the same time, plants from these crop and weed species and also horseweed (Canada horseweed, Conyza canadensis), waterhemp_RES1, (ALS & Triazine resistant common waterhemp, Amaranthus rudis), and waterhemp_RES2, (ALS & HPPD resistant common waterhemp, Amaranthus rudis) were planted in pots containing Redi-Earth® planting medium (Scotts Company, 14111 Scottslawn Road, Marysville, Ohio 43041) comprising spaghnum peat moss, vermiculite, wetting agent and starter nutrients were treated with postemergence applications of test chemicals formulated in the same manner. Plants ranged in height from 2 to 18 cm for postemergence treatments (1- to 4-leaf stage). Treated plants and controls were maintained in a greenhouse for 14 to 21 days, after which time all species were compared to controls and visually evaluated. Plant response ratings, summarized in Table E, are based on a scale of 0 to 100 where 0 is no effect and 100 is complete control. A dash (-) response means no test result.
# smartweed = assay: Test E postemergence; type: in vivo, ladysthumb smartweed
# Description: as §1, §2
# wild oat = assay: Test C preemergence; type: in vivo, Avena fatua; conditions: for Oat, Wild plant response rating: preemergence, scale 0 (no effect) to 100 (complete control)
# Description: (§3) Seeds of plant species selected from blackgrass (Alopecurus myosuroides), Italian ryegrass (Lolium multiflorum), wheat, winter (winter wheat, Triticum aestivum), galium (catchweed bedstraw, Galium aparine), corn (Zea mays), large (Lg) crabgrass (Digitaria sanguinalis), giant foxtail (Setaria faberii), johnsongrass (Sorghum halepense), lambsquarters (Chenopodium album), morningglory (Ipomoea coccinea), yellow nutsedge (Cyperus esculentus), pigweed (Amaranthus retroflexus), ragweed (common ragweed, Ambrosia elatior), soybean (Glycine max), barnyardgrass (Echinochloa crus-galli), oilseed rape (Brassica napus), waterhemp (common waterhemp, Amaranthus rudis), kochia (Kochia scoparia), wild oat (Avena fatua), surinam grass (Brachiaria decumbens), foxtail, green (green foxtail, Setaria viridis), goosegrass (Eleusine indica), bromegrass, downy (downy bromegrass, Bromus tectorum), nightshade (eastern black nightshade, Solanum ptycanthum), cocklebur (common cocklebur, Xanthium strumarium), cupgrass, woolly (woolly cupgrass, Eriochloa villosa), bermudagrass (Cynodon dactylon), sunflower, (common oilseed sunflower, Helianthus annuus), Russian thistle (Salsola kali), and velvetleaf (Abutilon theophrasti) were planted into a blend of loam soil and sand and treated preemergence with test chemicals formulated in a non-phytotoxic solvent mixture which included a surfactant.
# (§4) At the same time, plants selected from these crop and weed species and also barley, winter (winter barley, Hordeum vulgare), windgrass (Apera spica-venti), chickweed (common chickweed, Stellaria media), deadnettle (henbit deadnettle, Lamium amplexicaule), and canarygrass (littleseed canarygrass, Phalaris minor) were planted in pots containing Redi-Earth® planting medium (Scotts Company, 14111 Scottslawn Road, Marysville, Ohio 43041) comprising spaghnum peat moss, vermiculite, wetting agent and starter nutrients and treated with postemergence applications of test chemicals formulated in the same manner. Plants ranged in height from 2 to 18 cm (1- to 4-leaf stage) for postemergence treatments. Treated plants and controls were maintained in a greenhouse for 13 to 15 days, after which time all species were compared to controls and visually evaluated. Plant response ratings, summarized in Table C, are based on a scale of 0 to 100 where 0 is no effect and 100 is complete control. A dash (-) response means no test result.
# foxtail, green = assay: Test C preemergence; type: in vivo, Setaria viridis; conditions: for Foxtail, Green plant response rating: preemergence, scale 0 (no effect) to 100 (complete control)
# Description: as §3, §4
# goosegrass [1] = assay: Test C preemergence; type: in vivo, Eleusine indica; conditions: for Goosegrass plant response rating: preemergence, scale 0 (no effect) to 100 (complete control)
# Description: as §3, §4
# bromegrass, downy = assay: Test C preemergence; type: in vivo, Bromus tectorum; conditions: for Bromegrass, Downy plant response rating: preemergence, scale 0 (no effect) to 100 (complete control)
# Description: as §3, §4
# cocklebur = assay: Test C preemergence; type: in vivo, Xanthium strumarium; conditions: for Cocklebur plant response rating: preemergence, scale 0 (no effect) to 100 (complete control)
# Description: as §3, §4
# cupgrass, woolly [2] = assay: Test C preemergence; type: in vivo, Eriochloa villosa; conditions: for Cupgrass, Woolly plant response rating: preemergence, scale 0 (no effect) to 100 (complete control)
# Description: as §3, §4
# bermudagrass [3] = assay: Test C preemergence; type: in vivo, Cynodon dactylon; conditions: for Bermudagrass plant response rating: preemergence, scale 0 (no effect) to 100 (complete control)
# Description: as §3, §4
# sunflower = assay: Test C preemergence; type: in vivo, Helianthus annuus; conditions: for Sunflower plant response rating: preemergence, scale 0 (no effect) to 100 (complete control)
# Description: as §3, §4
# goosegrass [4] = assay: Test C postemergence; type: in vivo, Eleusine indica; conditions: for Plant response rating (0 to 100), Goosegrass: postemergence; for Plant response rating, Goosegrass: Postemergence, scale 0 to 100 (0 no effect, 100 complete control)
# Description: as §3, §4
# cupgrass, woolly [5] = assay: Test C postemergence; type: in vivo, Eriochloa villosa; conditions: for Plant response rating (0 to 100), Cupgrass, Woolly: postemergence; for Plant response rating, Cupgrass, Woolly: Postemergence, scale 0 to 100 (0 no effect, 100 complete control)
# Description: as §3, §4
# bermudagrass [6] = assay: Test C postemergence; type: in vivo, Cynodon dactylon; conditions: for Plant response rating (0 to 100), Bermudagrass: postemergence; for Plant response rating, Bermudagrass: Postemergence, scale 0 to 100 (0 no effect, 100 complete control)
# Description: as §3, §4
# [7] = Postemergence, 62 g ai/ha, scale 0 to 100
# [8] = Postemergence, 125 g ai/ha, scale 0 to 100
# [9] = Postemergence, 250 g ai/ha, scale 0 to 100
# [10] = postemergence, 16 g ai/ha, scale 0 to 100, 0 no effect, 100 complete control
# [11] = Preemergence, 31 g ai/ha, scale 0 to 100, 0 no effect, 100 complete control
smiles,measurement,setting,value
"N#Cc1cccc(Oc2ncc(Br)cn2)c1-n1cc(C(F)(F)F)cn1 [Compound 59, 3-[(5-bromo-2-pyrimidinyl)oxy]-2-[4-(trifluoromethyl)-1H-pyrazol-1-yl]benzonitrile]",pest or weed control at 31 g/ha,palmer pigweed,80%
same,pest or weed control at 62 g/ha,palmer pigweed,85%
same,pest or weed control at 125 g/ha,palmer pigweed,100%
same,pest or weed control at 250 g/ha,palmer pigweed,100%
same,pest or weed control at 16 g/ha,palmer pigweed,75%
same,"Plant response rating, Smartweed",smartweed; [7],80
same,"Plant response rating, Smartweed",smartweed; [8],100
same,"Plant response rating, Smartweed",smartweed; [9],100
same,"Plant response rating, Smartweed",smartweed; [10],55
FC(F)(F)c1cnn(-c2ccccc2Oc2ncc(Cl)cn2)c1 [Compound 16],"Oat, Wild plant response rating",wild oat; 62 g ai/ha,90
same,"Oat, Wild plant response rating",wild oat; 125 g ai/ha,90
same,"Oat, Wild plant response rating",wild oat; 250 g ai/ha,90
same,"Plant response rating, Oat, Wild",wild oat; [11],50
same,"Foxtail, Green plant response rating","foxtail, green; 62 g ai/ha",90
same,"Foxtail, Green plant response rating","foxtail, green; 125 g ai/ha",90
same,"Foxtail, Green plant response rating","foxtail, green; 250 g ai/ha",90
same,"Plant response rating, Foxtail, Green","foxtail, green; [11]",90
same,Goosegrass plant response rating,goosegrass [1]; 62 g ai/ha,98
same,Goosegrass plant response rating,goosegrass [1]; 125 g ai/ha,100
same,Goosegrass plant response rating,goosegrass [1]; 250 g ai/ha,100
same,"Plant response rating, Goosegrass",goosegrass [1]; [11],75
same,"Bromegrass, Downy plant response rating","bromegrass, downy; 62 g ai/ha",60
same,"Bromegrass, Downy plant response rating","bromegrass, downy; 125 g ai/ha",90
same,"Bromegrass, Downy plant response rating","bromegrass, downy; 250 g ai/ha",95
same,"Plant response rating, Bromegrass, Downy","bromegrass, downy; [11]",30
same,Cocklebur plant response rating,cocklebur; 62 g ai/ha,5
same,Cocklebur plant response rating,cocklebur; 125 g ai/ha,5
same,Cocklebur plant response rating,cocklebur; 250 g ai/ha,20
same,"Plant response rating, Cocklebur",cocklebur; [11],0
same,"Cupgrass, Woolly plant response rating","cupgrass, woolly [2]; 62 g ai/ha",90
same,"Cupgrass, Woolly plant response rating","cupgrass, woolly [2]; 125 g ai/ha",98
same,"Cupgrass, Woolly plant response rating","cupgrass, woolly [2]; 250 g ai/ha",98
same,"Plant response rating, Cupgrass, Woolly","cupgrass, woolly [2]; [11]",75
same,Bermudagrass plant response rating,bermudagrass [3]; 62 g ai/ha,98
same,Bermudagrass plant response rating,bermudagrass [3]; 125 g ai/ha,98
same,Bermudagrass plant response rating,bermudagrass [3]; 250 g ai/ha,98
same,"Plant response rating, Bermudagrass",bermudagrass [3]; [11],95
same,Sunflower plant response rating,sunflower; 62 g ai/ha,0
same,Sunflower plant response rating,sunflower; 125 g ai/ha,0
same,Sunflower plant response rating,sunflower; 250 g ai/ha,0
same,"Plant response rating, Sunflower",sunflower; [11],0
same,"Plant response rating (0 to 100), Goosegrass",goosegrass [4]; 125 g ai/ha,15
same,"Plant response rating (0 to 100), Goosegrass",goosegrass [4]; 250 g ai/ha,30
same,"Plant response rating, Goosegrass","goosegrass [4]; 31 g ai/ha, 13 to 15 days",0
same,"Plant response rating, Goosegrass",goosegrass [4]; 62 g ai/ha,10
same,"Plant response rating (0 to 100), Cupgrass, Woolly","cupgrass, woolly [5]; 125 g ai/ha",20
same,"Plant response rating (0 to 100), Cupgrass, Woolly","cupgrass, woolly [5]; 250 g ai/ha",30
same,"Plant response rating, Cupgrass, Woolly","cupgrass, woolly [5]; 31 g ai/ha, 13 to 15 days",5
same,"Plant response rating, Cupgrass, Woolly","cupgrass, woolly [5]; 62 g ai/ha",15
same,"Plant response rating (0 to 100), Bermudagrass",bermudagrass [6]; 125 g ai/ha,50
same,"Plant response rating (0 to 100), Bermudagrass",bermudagrass [6]; 250 g ai/ha,55
same,"Plant response rating, Bermudagrass","bermudagrass [6]; 31 g ai/ha, 13 to 15 days",10
same,"Plant response rating, Bermudagrass",bermudagrass [6]; 62 g ai/ha,15
"N#Cc1cccc(Oc2ncc(Cl)cn2)c1-n1cc(C(F)(F)F)cn1 [Compound 58, 3-[(5-chloro-2-pyrimidinyl)oxy]-2-[4-(trifluoromethyl)-1H-pyrazol-1-yl]benzonitrile]",pest or weed control at 31 g/ha,palmer pigweed,95%
same,pest or weed control at 62 g/ha,palmer pigweed,100%
same,pest or weed control at 125 g/ha,palmer pigweed,100%
same,pest or weed control at 250 g/ha,palmer pigweed,100%
same,pest or weed control at 16 g/ha,palmer pigweed,90%
same,"Plant response rating, Smartweed","smartweed; Postemergence, 31 g ai/ha, scale 0 to 100",65
same,"Plant response rating, Smartweed",smartweed; [7],85
same,"Plant response rating, Smartweed",smartweed; [8],100
same,"Plant response rating, Smartweed",smartweed; [9],100
same,"Plant response rating, Smartweed",smartweed; [10],50
